Data published in PubChem BioAssay (NCI).
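How tested: cells in 96-well plates exposed to compound for 48 hours at five concentrations. At the TGI there is no net growth.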

Columns and labels:
Test in all cases: NCI-60 cell line screen, 48 h
[1] = test system: 786-0 renal
[2] = test system: A498 renal
[3] = test system: A549 NSCLC
[4] = test system: ACHN renal
[5] = test system: BT-549 breast
[6] = test system: CAKI-1 renal
[7] = test system: CCRF-CEM leukemia
[8] = test system: COLO 205 colon
[9] = test system: DU-145 prostate
[10] = test system: EKVX NSCLC
[11] = test system: HCC-2998 colon
[12] = test system: HCT-116 colon
[13] = test system: HCT-15 colon
[14] = test system: HL-60(TB) leukemia
[15] = test system: HOP-62 NSCLC
[16] = test system: HOP-92 NSCLC
[17] = test system: HS 578T breast
[18] = test system: HT29 colon
[19] = test system: IGROV1 ovarian
[20] = test system: K-562 leukemia
[21] = test system: KM12 colon
[22] = test system: LOX IMVI melanoma
[23] = test system: M14 melanoma
[24] = test system: MALME-3M melanoma
[25] = test system: MCF7 breast
[26] = test system: MDA-MB-231 breast
[27] = test system: MDA-MB-435
[28] = test system: MDA-N
[29] = test system: MOLT-4 leukemia
[30] = test system: NCI-H226 lung
[31] = test system: NCI-H23 lung
[32] = test system: NCI-H460 lung
[33] = test system: NCI-H522 lung
[34] = test system: NCI/ADR-RES ovarian
[35] = test system: OVCAR-3 ovarian
[36] = test system: OVCAR-4 ovarian
[37] = test system: OVCAR-5 ovarian
[38] = test system: OVCAR-8 ovarian
[39] = test system: PC-3 prostate
[40] = test system: RPMI-8226 leukemia
[41] = test system: RXF 393 renal
[42] = test system: SF-268 CNS
[43] = test system: SF-295 CNS
[44] = test system: SF-539 CNS
[45] = test system: SK-MEL-2 melanoma
[46] = test system: SK-MEL-28 melanoma
[47] = test system: SK-MEL-5 melanoma
[48] = test system: SK-OV-3 ovarian
[49] = test system: SN12C renal
[50] = test system: SNB-19 CNS
[51] = test system: SNB-75 CNS
[52] = test system: SR leukemia
[53] = test system: SW-620 colon
[54] = test system: T-47D breast
[55] = test system: TK-10 renal
[56] = test system: U251 CNS
[57] = test system: UACC-257 melanoma
[58] = test system: UACC-62 melanoma
[59] = test system: UO-31 renal

`Clc1ccc(-c2nnc(-c3cccc4ccccc34)o2)cc1Cl` gave a TGI [1] greater than 100 µM, a TGI [2] greater than 100 µM and a TGI [3] greater than 100 µM. For the same compound, the TGI [4] was greater than 100 µM, the TGI [5] was greater than 100 µM and the TGI [6] was greater than 100 µM. It also gave a TGI [7] greater than 100 µM, a TGI [8] greater than 100 µM and a TGI [9] greater than 100 µM. It also gave a TGI [10] greater than 100 µM, a TGI [11] greater than 100 µM and a TGI [12] greater than 100 µM. The TGI [13] was greater than 100 µM, the TGI [14] was greater than 100 µM and the TGI [15] was greater than 100 µM. The TGI [16] was greater than 100 µM, the TGI [17] was greater than 100 µM and the TGI [18] was greater than 100 µM. For the same compound, the TGI [19] was 53.9 µM, the TGI [20] was greater than 100 µM and the TGI [21] was greater than 100 µM. It also gave a TGI [22] greater than 100 µM, a TGI [23] greater than 100 µM and a TGI [24] greater than 100 µM. It also gave a TGI [25] greater than 100 µM, a TGI [26] greater than 100 µM and a TGI [27] greater than 100 µM. The TGI [28] was greater than 100 µM, the TGI [29] was greater than 100 µM and the TGI [30] was greater than 100 µM. The TGI [31] was greater than 100 µM, the TGI [32] was greater than 100 µM and the TGI [33] was greater than 100 µM. The TGI [34] was greater than 100 µM, the TGI [35] was greater than 100 µM and the TGI [36] was greater than 100 µM. The TGI [37] was greater than 100 µM, the TGI [38] was greater than 100 µM and the TGI [39] was greater than 100 µM. For the same compound, the TGI [40] was greater than 100 µM, the TGI [41] was greater than 100 µM and the TGI [42] was greater than 100 µM. For the same compound, the TGI [43] was greater than 100 µM, the TGI [44] was greater than 100 µM and the TGI [45] was greater than 100 µM. The TGI [46] was greater than 100 µM, the TGI [47] was greater than 100 µM and the TGI [48] was greater than 100 µM. It also gave a TGI [49] greater than 100 µM, a TGI [50] greater than 100 µM and a TGI [51] greater than 100 µM. For the same compound, the TGI [52] was greater than 100 µM, the TGI [53] was greater than 100 µM and the TGI [54] was greater than 100 µM. The TGI [55] was greater than 100 µM, the TGI [56] was greater than 100 µM and the TGI [57] was greater than 100 µM. The TGI [58] was greater than 100 µM and the TGI [59] was greater than 100 µM.

In the case of `Fc1ccc(N=C/C=C/Nc2ccc(F)cc2)cc1`, the TGI [1] is reported as 16.4 µM, the TGI [2] is reported as 28.8 µM and the TGI [3] is reported as 21.8 µM. The TGI [4] was 15 µM, the TGI [5] was 27.4 µM and the TGI [6] was 28.2 µM. For the same compound, the TGI [7] was greater than 51.3 µM, the TGI [8] was 12.5 µM and the TGI [9] was 26.7 µM. For the same compound, the TGI [10] was 25.9 µM, the TGI [11] was 19.5 µM and the TGI [12] was 18.9 µM. The TGI [13] was 15.2 µM, the TGI [14] was 10.3 µM and the TGI [15] was 33 µM. It also gave a TGI [16] of 33.1 µM, a TGI [17] of 47.2 µM and a TGI [18] of 24.2 µM. It also gave a TGI [19] of 26.2 µM, a TGI [20] of 22.1 µM and a TGI [21] of 19.9 µM. The TGI [22] was 18.5 µM, the TGI [23] was 11.9 µM and the TGI [24] was 30.6 µM. It also gave a TGI [25] of 28.3 µM, a TGI [26] of 30.1 µM and a TGI [27] of 20.8 µM. The TGI [28] was 18.5 µM, the TGI [29] was 38.5 µM and the TGI [30] was 36.2 µM. For the same compound, the TGI [31] was 48.4 µM, the TGI [32] was 24.7 µM and the TGI [33] was 27.6 µM. The TGI [34] was 26.4 µM, the TGI [35] was 31.1 µM and the TGI [36] was 29.8 µM. The TGI [37] was 25.3 µM, the TGI [38] was 25.9 µM and the TGI [39] was 22.3 µM. For the same compound, the TGI [40] was 52 µM, the TGI [41] was 30.5 µM and the TGI [42] was 27.5 µM. It also gave a TGI [43] of 24.2 µM, a TGI [44] of 27.2 µM and a TGI [45] of 26.7 µM. It also gave a TGI [46] of 22 µM, a TGI [47] of 22.3 µM and a TGI [48] of 28.8 µM. The TGI [49] was 28.3 µM, the TGI [50] was 26.9 µM and the TGI [51] was 28.4 µM. For the same compound, the TGI [52] was 9.17 µM, the TGI [53] was 20.7 µM and the TGI [54] was 29.4 µM. It also gave a TGI [55] of 4.32 µM, a TGI [56] of 20.6 µM and a TGI [57] of 26.8 µM. It also gave a TGI [58] of 16.8 µM and a TGI [59] of 21 µM.

With `COC(=O)/C=C\C(C#N)(C#N)N=Cc1ccccc1` the TGI [1] was 3.22 µM, the TGI [2] was 33.1 µM and the TGI [3] was 34.3 µM. For the same compound, the TGI [4] was 6.35 µM, the TGI [5] was 10.8 µM and the TGI [6] was 7.31 µM. For the same compound, the TGI [7] was 2.4 µM, the TGI [8] was 2.97 µM and the TGI [9] was 31.4 µM. For the same compound, the TGI [10] was 27.3 µM, the TGI [11] was 35.1 µM and the TGI [12] was 3.4 µM. The TGI [13] was 8.79 µM, the TGI [14] was 6.42 µM and the TGI [15] was 34 µM. It also gave a TGI [16] of 3.74 µM, a TGI [17] of 36.2 µM and a TGI [18] of 19.4 µM. For the same compound, the TGI [19] was 25.9 µM, the TGI [20] was 15 µM and the TGI [21] was 33.4 µM. For the same compound, the TGI [22] was 5.72 µM, the TGI [23] was 5.41 µM and the TGI [24] was 4.88 µM. It also gave a TGI [25] of 5.73 µM, a TGI [26] of 30.9 µM and a TGI [27] of 5.22 µM. It also gave a TGI [28] of 15.1 µM, a TGI [29] of 3.85 µM and a TGI [30] of 21 µM. The TGI [31] was 25.3 µM, the TGI [32] was 39.5 µM and the TGI [33] was 1.67 µM. For the same compound, the TGI [34] was 9.03 µM, the TGI [35] was 4.97 µM and the TGI [36] was 13.5 µM. The TGI [37] was 38.7 µM, the TGI [38] was 4.38 µM and the TGI [39] was 13.1 µM. The TGI [40] was 2.88 µM, the TGI [41] was 4.28 µM and the TGI [42] was 11.4 µM. The TGI [43] was 36.1 µM, the TGI [44] was 9.71 µM and the TGI [45] was 32.9 µM. The TGI [46] was 14.3 µM, the TGI [47] was 28 µM and the TGI [48] was 32.4 µM. For the same compound, the TGI [49] was 26.6 µM, the TGI [50] was greater than 58.4 µM and the TGI [51] was 14.5 µM. The TGI [52] was 3.36 µM, the TGI [53] was 5.54 µM and the TGI [54] was 3.88 µM. The TGI [55] was 5.54 µM, the TGI [56] was 35.6 µM and the TGI [57] was 12.8 µM. It also gave a TGI [58] of 28 µM and a TGI [59] of 7.23 µM.
